Laboratory results: article PMC11211886 (Frontiers in Pharmacology, 2024)
Where two headings read alike, the source gives them in different places.

Assays:
CYP2C9 mRNA = assay: CYP induction in human hepatocytes, CYP2C9 mRNA (RT-PCR)
Method: […] […] […] Enzyme activity for each CYP isoform was reported as a fold change over vehicle control and the percent of positive control (detailed calculation in Supplementary 1.1). Hepatocytes were harvested with a lysis buffer from RNeasy 96 Kit (Qiagen Inc., Germantown, MD, USA) to isolate RNA, which was analyzed by real-time quantitative polymerase chain reaction (RT-PCR). […] Emax (the maximal observed induction) and EC50 (the concentration that supports half-maximal induction) were estimated by non-linear regression of fold increase in CYP mRNA expression versus concentration plots.
% of positive control = [(fold change in treated sample)-1] / [(fold change in positive control)-1] × 100
Based on the gene expression, a minimum of 4-fold increase of positive control compared to vehicle control, a minimum of 2-fold increase of the test article compared vehicle control and increased in a concentration-dependent manner was considered as the cutoff for a positive signal in in vitro induction assay.

OAT3 = molecular target: T1, OAT3 (Homo sapiens, UniProt Q8TCC7); assay: OAT3 inhibition, estrone 3-sulfate uptake in transfected HEK293 cells
T1 sequence (Q8TCC7 1-542): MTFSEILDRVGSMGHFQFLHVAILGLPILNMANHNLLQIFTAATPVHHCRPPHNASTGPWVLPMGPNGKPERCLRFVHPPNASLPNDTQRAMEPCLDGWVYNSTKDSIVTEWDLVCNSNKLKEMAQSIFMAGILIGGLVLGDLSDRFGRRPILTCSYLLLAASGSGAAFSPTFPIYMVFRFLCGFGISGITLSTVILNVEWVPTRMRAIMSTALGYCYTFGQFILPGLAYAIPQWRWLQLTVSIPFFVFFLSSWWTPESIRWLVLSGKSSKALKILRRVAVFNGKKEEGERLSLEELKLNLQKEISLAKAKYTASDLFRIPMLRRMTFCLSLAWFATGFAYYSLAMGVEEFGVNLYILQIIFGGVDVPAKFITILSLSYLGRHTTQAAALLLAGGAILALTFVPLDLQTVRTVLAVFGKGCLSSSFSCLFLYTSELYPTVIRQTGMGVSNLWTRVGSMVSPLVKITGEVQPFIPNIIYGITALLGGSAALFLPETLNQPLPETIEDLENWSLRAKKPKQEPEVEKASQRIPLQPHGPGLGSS
Method: The pre-incubation solutions were removed, and incubation solutions containing the inhibitors and probe substrates (or transport buffer containing an equal volume of vehicle control and probe substrates) were added and incubated at 37°C for 2 min (5 min for OATP1B3). The probe substrate for OAT1 was 4-aminohippuric acid (10 μM), for OAT3 was estrone 3-sulfate (10 μM), for OCT2 was metformin (100 μM), for OATP1B1 was β-estradiol 17-(β-D-glucuronide) (5 μM), for OATP1B3 was β-estradiol 17-(β-D-glucuronide) (10 μM), and for MATE1 and MATE2-K was tetraethylammonium (10 μM). After incubation, cells were washed three times with ice-cold transport buffer (25 mM HEPES, pH 7.4, pH 8.0 for overexpressing MATE1 and MATE2-K HEK293 cells) and lysed in distilled water. The concentrations of probe substrates were determined by LC-MS/MS, and a BCA Kit (Solarbio ®Life Sciences, Beijing, China) was used to determine the protein content in the cell lysate.
where C is the concentration of the drug in the cell lysate (nM), P is the protein concentration of the cell lysate (mg/mL), and T is the incubation time (minute). Uptake ratetest compound is the uptake rate of the substrate in the presence of the test compound. Uptake ratevehicle control is the uptake rate of the substrate in the presence of the vehicle control. Uptake ratepassive is the uptake rate of the substrate in the presence of the positive inhibitor at the top test concentration.

[1] = Single-dose PK in SD rats (IV/PO); design: species or system SD rat; details: in vivo
Text: For the single-dose PK study, twenty-four rats were divided into four groups, with six rats (male: female = 1:1) in each group.

[2] = cited from earlier work
[3] = both sexes, SD, rat, iv, 5 mg/kg
[4] = both sexes, SD, rat, po, 1 mg/kg
[5] = both sexes, SD, rat, po, 5 mg/kg
[6] = both sexes, SD, rat, po, 25 mg/kg

## C[C@H](Nc1ncnc(N)c1C#N)c1cc2ncc(Cl)n2nc1-c1ccccc1 [Amdizalisib]
CYP2C9 mRNA; 20 uM
  induction on CYP2C9 mRNA expression: >2-fold induction on CYP1A2, 2B6, 3A4, 2C9 mRNA expression at 20 uM
CYP2C9 mRNA; CYP2C9, donor eight, 0.3 µM
  Gene expression Percent of PC (%): 5.23%
CYP2C9 mRNA; CYP2C9, donor eight, 3 µM
  Gene expression Percent of PC (%): 20.0%
CYP2C9 mRNA; CYP2C9, donor eight, 20 µM
  Gene expression Percent of PC (%): 54.5%
CYP2C9 mRNA; CYP2C9, donor four, 0.3 µM
  Gene expression Percent of PC (%): 16.1%
CYP2C9 mRNA; CYP2C9, donor four, 3 µM
  Gene expression Percent of PC (%): 28.8%
CYP2C9 mRNA; CYP2C9, donor four, 20 µM
  Gene expression Percent of PC (%): 81.6%
CYP2C9 mRNA; CYP2C9, donor one, 0.3 µM
  Gene expression Percent of PC (%): 12.7%
CYP2C9 mRNA; CYP2C9, donor one, 3 µM
  Gene expression Percent of PC (%): 18.0%
CYP2C9 mRNA; CYP2C9, donor one, 20 µM
  Gene expression Percent of PC (%): 59.0%
OAT3
  IC50: 41.1 µM
OAT3; OAT3, compound 0.3 μM
  Percentage transported: 96.4%
  Uptake rate: 101±1.22 pmol/mg protein/min
OAT3; OAT3, compound 1 μM
  Percentage transported: 103%
  Uptake rate: 106±2.62 pmol/mg protein/min
OAT3; OAT3, compound 3 μM
  Percentage transported: 97.5%
  Uptake rate: 102±3.76 pmol/mg protein/min
OAT3; OAT3, compound 10 μM
  Percentage transported: 101%
  Uptake rate: 105±1.14 pmol/mg protein/min
OAT3; OAT3, compound 30 μM
  Percentage transported: 52.3%
  Uptake rate: 63.6±3.38 pmol/mg protein/min
OAT3; OAT3, compound 100 μM
  Percentage transported: 27.3%
  Uptake rate: 42.5±2.15 pmol/mg protein/min
OAT3; human, pH 7.4
  inhibition at 2 min, 0.3 µM: 3.57%
  inhibition at 2 min, 1 µM: -2.52%
  inhibition at 2 min, 3 µM: 2.54%
  inhibition at 2 min, 10 µM: -0.883%
  inhibition at 2 min, 30 µM: 47.7%
  inhibition at 2 min, 100 µM: 72.7%
OAT3; renal OATs
  calculated R value (OAT3): < 1.1
[1]; [3]
  AUC(0-inf): 13900 ng·h/mL
  AUC(0-t): 13900 ng·h/mL
  MRT: 4.6 ± 2.85 h
  Vd: 1.68 ± 0.153 L/kg
  clearance: 9.12 ± 6.31 mL/min/kg
[1]; [4]
  AUC(0-inf): 1320 ng·h/mL
  AUC(0-t): 1140 ng·h/mL
  Cmax: 115 ± 79.1 ng/mL
  MRT: 7.9 ± 5.28 h
[1]; [5]
  AUC(0-inf): 6130 ng·h/mL
  AUC(0-t): 6040 ng·h/mL
  Cmax: 622 ± 257 ng/mL
  MRT: 7.84 ± 5.51 h
  Tmax: 1.5 ± 0.548 h
  half-life: 5.11 ± 4 h
[1]; [6]
  AUC(0-inf): 52600 ng·h/mL
  AUC(0-t): 52400 ng·h/mL
  Cmax: 3350 ng/mL
  MRT: 11 ± 6.61 h
  half-life: 5.62 ± 2.86 h
[1]; both sexes, SD rat, fasted, IV 5 mg/kg, read-out: t1/2 (converted)
  half-life: 3.61 ± 2.01 h
[1]; both sexes, SD rat, fasted, PO 1 mg/kg, read-out: Tmax
  Tmax: 2.67 ± 1.75 h
[1]; both sexes, SD rat, fasted, PO 1 mg/kg, read-out: t1/2 (converted)
  half-life: 4.94 ± 3.35 h
[1]; both sexes, SD rat, fasted, PO 25 mg/kg, read-out: Tmax
  Tmax: 4.17 ± 2.23 h
[1]; both, Sprague-Dawley, rat, iv
  CL as % of the hepatic blood flow: 16.6%
[2]; 30 mg QD in humans
  maximal unbound plasma concentration at steady state: ~52.1 nM
[2]; human
  observed human value (Vss/F): 2.33 L/kg
  reported human CLss/F: 3.25 mL/min/kg
